The test system of the test is L1210 leukemia ip in BDF1 mice, survival T/C. The experiment in a line: NCI In Vivo Anticancer Drug Screen. Data for tumor model L1210 Leukemia (intraperitoneal) in B6D2F1 (BDF1) mice. Conditions: endpoint: mean survival time, higher = longer survival. The gist of the method:
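Tumor was transplanted into mice, which were then dosed with test compound or vehicle alone. Survival was recorded for each group, and the treated figure was expressed relative to the control figure.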

Inconclusive results and toxic doses are left out.

In the case of `[N-]=[N+]=CC(=O)CCC(N)C(=O)O` (centres undefined), the T/C is, setting by setting: (dose: 0.01 mg/kg/injection, schedule: Q01DX015 (ip), vehicle: water) 101 % of control; (dose: 0.03 mg/kg/injection, schedule: Q01DX015 (ip), vehicle: water) 118 % of control; (dose: 0.05 mg/kg/injection, schedule: Q01DX009 (ip), vehicle: saline) 118 % of control; (dose: 0.06 mg/kg/injection, schedule: Q01DX009 (oral), vehicle: saline) 114 % of control; (dose: 0.1 mg/kg/injection, schedule: Q01DX015 (ip), vehicle: other) 168 % of control; (dose: 0.1 mg/kg/injection, schedule: Q01DX015 (ip), vehicle: water) 154 % of control. Besides, the T/C is 120 % of control (dose: 0.2 mg/kg/injection, schedule: Q01DX009 (ip), vehicle: saline); 150 % of control (dose: 0.2 mg/kg/injection, schedule: Q01DX009 (oral), vehicle: saline); 210 % of control (dose: 0.2 mg/kg/injection, schedule: Q01DX015 (ip), vehicle: other); 156 % of control (dose: 0.2 mg/kg/injection, schedule: Q01DX015 (ip), vehicle: water); 164 % of control (dose: 0.25 mg/kg/injection, schedule: Q01DX009 (oral), vehicle: saline); 150 % of control (dose: 0.39 mg/kg/injection, schedule: Q03HX016 (ip), vehicle: saline). Also, the T/C reads like this: (dose: 0.39 mg/kg/injection, schedule: Q03HX024 (ip), vehicle: saline) 184 % of control; (dose: 0.4 mg/kg/injection, schedule: Q01DX009 (ip), vehicle: saline) 104 % of control; (dose: 0.4 mg/kg/injection, schedule: Q01DX015 (ip), vehicle: water) 218 % of control; (dose: 0.4 mg/kg/injection, schedule: Q02DX005 (oral), vehicle: saline) 162 % of control; (dose: 0.6 mg/kg/injection, schedule: Q01DX015 (ip), vehicle: water) 168 % of control; (dose: 0.63 mg/kg/injection, schedule: Q02DX008 (ip), vehicle: water) 156 % of control. Besides, the T/C (dose: 0.78 mg/kg/injection, schedule: Q03HX016 (ip), vehicle: saline) was 165 % of control; the T/C (dose: 0.78 mg/kg/injection, schedule: Q03HX024 (ip), vehicle: saline) is 194 % of control; the T/C (dose: 0.8 mg/kg/injection, schedule: Q02DX005 (oral), vehicle: saline) was 150 % of control; the T/C (dose: 1.25 mg/kg/injection, schedule: Q02DX008 (ip), vehicle: water) is 180 % of control; the T/C (dose: 1.25 mg/kg/injection, schedule: Q02DX008 (oral), vehicle: water) is 162 % of control; the T/C (dose: 1.56 mg/kg/injection, schedule: Q03HX016 (ip), vehicle: saline) is 160 % of control. The T/C by setting is: (dose: 1.56 mg/kg/injection, schedule: Q03HX024 (ip), vehicle: saline) 174 % of control; (dose: 1.6 mg/kg/injection, schedule: Q02DX005 (oral), vehicle: saline) 167 % of control; (dose: 2.5 mg/kg/injection, schedule: Q02DX008 (ip), vehicle: other) 187 % of control; (dose: 2.5 mg/kg/injection, schedule: Q02DX008 (oral), vehicle: other) 156 % of control; (dose: 2.5 mg/kg/injection, schedule: Q02DX008 (oral), vehicle: water) 205 % of control; (dose: 3.12 mg/kg/injection, schedule: Q03HX024 (ip), vehicle: saline) 90 % of control. Further, the T/C is, setting by setting: (dose: 3.12 mg/kg/injection, schedule: Q04DX003 (ip), vehicle: saline) 150 % of control; (dose: 3.2 mg/kg/injection, schedule: Q02DX005 (oral), vehicle: saline) 153 % of control; (dose: 5.0 mg/kg/injection, schedule: Q02DX008 (ip), vehicle: other) 216 % of control; (dose: 5.0 mg/kg/injection, schedule: Q02DX008 (oral), vehicle: other) 169 % of control; (dose: 6.25 mg/kg/injection, schedule: Q04DX003 (ip), vehicle: saline) 170 % of control; (dose: 6.4 mg/kg/injection, schedule: Q02DX005 (oral), vehicle: saline) 179 % of control. The T/C by setting is: (dose: 10.0 mg/kg/injection, schedule: Q02DX008 (oral), vehicle: other) 205 % of control; (dose: 12.5 mg/kg/injection, schedule: Q04DX003 (ip), vehicle: saline) 181 % of control; (dose: 12.5 mg/kg/injection, schedule: Q08DX002 (ip), vehicle: saline) 150 % of control; (dose: 12.8 mg/kg/injection, schedule: Q02DX005 (oral), vehicle: saline) 185 % of control; (dose: 15.0 mg/kg/injection, schedule: Q02DX008 (ip), vehicle: other) 104 % of control; (dose: 15.0 mg/kg/injection, schedule: Q02DX008 (oral), vehicle: other) 184 % of control. The T/C is 197 % of control (dose: 20.0 mg/kg/injection, schedule: Q02DX008 (oral), vehicle: other); 123 % of control (dose: 25.0 mg/kg/injection, schedule: Q01DX001 (ip), vehicle: water); 151 % of control (dose: 25.0 mg/kg/injection, schedule: Q08DX002 (ip), vehicle: saline); 167 % of control (dose: 25.0 mg/kg/injection, schedule: Q## X003 (ip), vehicle: saline); 187 % of control (dose: 26.0 mg/kg/injection, schedule: Q02DX005 (oral), vehicle: saline); 165 % of control (dose: 50.0 mg/kg/injection, schedule: Q## X002 (ip), vehicle: saline). Besides, the T/C runs as follows: (dose: 50.0 mg/kg/injection, schedule: Q## X016 (ip), vehicle: saline) 98 % of control; (dose: 100.0 mg/kg/injection, schedule: Q01DX001 (ip), vehicle: saline) 156 % of control; (dose: 100.0 mg/kg/injection, schedule: Q## X002 (ip), vehicle: saline) 168 % of control; (dose: 100.0 mg/kg/injection, schedule: Q## X003 (ip), vehicle: saline) 92 % of control; (dose: 150.0 mg/kg/injection, schedule: Q01DX001 (ip), vehicle: water) 159 % of control; (dose: 200.0 mg/kg/injection, schedule: Q01DX001 (ip), vehicle: saline) 110 % of control. The T/C by setting is: (dose: 200.0 mg/kg/injection, schedule: Q01DX001 (ip), vehicle: water) 151 % of control; (dose: 200.0 mg/kg/injection, schedule: Q## X002 (ip), vehicle: saline) 97 % of control; (dose: 400.0 mg/kg/injection, schedule: Q## X002 (ip), vehicle: saline) 89 % of control; (dose: 25.0 micrograms/kg/injection, schedule: Q01DX010 (ip), vehicle: saline) 98 % of control; (dose: 50.0 micrograms/kg/injection, schedule: Q01DX010 (ip), vehicle: saline) 112 % of control.

For the compound `CCNP(=O)(OCC)OCC`, the T/C runs as follows: (dose: 50.0 mg/kg/injection, schedule: Q01DX001 (ip), vehicle: carboxymethylcellulose (CMC)) 94 % of control; (dose: 100.0 mg/kg/injection, schedule: Q01DX001 (ip), vehicle: carboxymethylcellulose (CMC)) 92 % of control; (dose: 200.0 mg/kg/injection, schedule: Q01DX001 (ip), vehicle: carboxymethylcellulose (CMC)) 94 % of control; (dose: 400.0 mg/kg/injection, schedule: Q01DX001 (ip), vehicle: carboxymethylcellulose (CMC)) 118 % of control.

In the case of `Nc1ncnc2c1nnn2C1CC(CO)C(O)C1O` (centres undefined), the T/C is 112 % of control (dose: 50.0 mg/kg/injection, schedule: Q04DX003 (ip), vehicle: other); 122 % of control (dose: 67.0 mg/kg/injection, schedule: Q01DX009 (ip), vehicle: saline with Tween-80); 106 % of control (dose: 67.0 mg/kg/injection, schedule: Q04DX003 (ip), vehicle: other); 118 % of control (dose: 100.0 mg/kg/injection, schedule: Q01DX009 (ip), vehicle: saline with Tween-80); 114 % of control (dose: 100.0 mg/kg/injection, schedule: Q04DX003 (ip), vehicle: other); 118 % of control (dose: 150.0 mg/kg/injection, schedule: Q01DX009 (ip), vehicle: saline with Tween-80). Moreover, the T/C (dose: 150.0 mg/kg/injection, schedule: Q04DX003 (ip), vehicle: other) is 111 % of control and the T/C (dose: 200.0 mg/kg/injection, schedule: Q04DX003 (ip), vehicle: other) was 123 % of control.

Regarding `C/C(C(=O)O)=C1\N=C(N)NC1=O`, the T/C was 98 % of control (dose: 100.0 mg/kg/injection, schedule: Q01DX001 (ip), vehicle: Klucel (hydroxypropylcellulose) (HPC)); 96 % of control (dose: 200.0 mg/kg/injection, schedule: Q01DX001 (ip), vehicle: Klucel (hydroxypropylcellulose) (HPC)); 102 % of control (dose: 400.0 mg/kg/injection, schedule: Q01DX001 (ip), vehicle: Klucel (hydroxypropylcellulose) (HPC)).

(Values after PubChem BioAssay AID248 (DTP/NCI, 2004).)
